Assays:
Format in all cases: cell-based, murine
[1] = system: parental ES cell line (D3 ES cells); assay: Self-renewal, differentiation and growth of ES cells in serum- and feeder-free culture with LIF and MAP kinase inhibitors
Procedure: (§1) FIG. 5A-5C. Effect of MAPK inhibitors on ES cell self-renewal. (A) Phase contrast image of parental ES cells cultured for 8 days (left), Bcl-2 ES cells cultured for 14 days (middle), and parental ES cells cultured with PD98059 for 14 days (right) in serum- and feeder-free conditions. (B) Growth curve of Bcl-2 ES cells (square) and parental ES cells cultured with 12.5 μM of PD98059 (circle) in serum- and feeder-free conditions. (C) Colony formation activity of parental (p) ES cells cultured without (Non) or with PD98059, and Bcl-2 ES cells at low cell density. Cultures were initiated with 200 cells per well (12 well-plate) and colonies were enumerated 7 days later.
(§2) Cell culture. D3 ES cells (Doetschman et al. (1985) J. Embryol. Exp. Morphol. 87:27-45) were maintained as previously described (Yamane et al. (1997) Blood 90:3516-3523), and clones expressing human Bcl-2 were established by co-transfecting parental D3 ES cells with the human Bcl2-IRES-EGFP transgene under control of the CAG promoter, and a puromycin resistance gene cassette. Bcl-2 ES cell clones were selected and expanded in the presence of puromycin. For serum-free cultures, ES cells are maintained in X-VIVO 15 (Cambrex) supplemented with 2 mM GlutaMax-1 (Gibco), 0.1 mM 2-mercaptoethanol, 1,000 U/mL ESGRO (Chemicon International), 100 U/mL penicillin (Gibco), and […] streptomycin (Gibco) on gelatin-coated dishes. Alternatively, IMDM/F12 (1:1) (Gibco) supplemented with 2 mM GlutaMax-1, 0.1 mM 2-mercaptoethanol, 0.1% polyvinyl alcohol (Sigma), 1× Insulin-Transferin-Selenium-X (Gibco), 1,000 U/mL ESGRO, 100 U/mL penicillin, and 100 mg streptomycin was used where indicated. Cells were dissociated with Cell Dissociation Buffer (Enzyme-Free, Hanks'-based, Gibco).
MAP kinase inhibitors. 1 μM SB203580 (Calbiochem) and 12.5 μM PD98059 (Calbiochem) were used as described (Qi et al. (2004) Proc. Natl. Acad. Sci USA 101, 6027-6032; Burdon et al. (1999) Dev. Biol. 210, 30-43).

[2] = system: parental ES cells; assay: Colony formation activity at low cell density in serum- and feeder-free conditions; settings: 200 cells per well (12 well-plate), colonies enumerated 7 days later (FIG. 5C)
Procedure: as §1
as §2, with “Alternatively, IMDM/F12 (1:1) (Gibco) supplemented with 2 mM GlutaMax-1, 0.1 mM 2-mercaptoethanol, 0.1% polyvinyl alcohol (Sigma), 1× Insulin-Transferin-Selenium-X (Gibco), 1,000 U/mL ESGRO, 100 U/mL penicillin, and 100 mg streptomycin was used where indicated. Cells were dissociated with Cell Dissociation Buffer (Enzyme-Free, Hanks'-based, Gibco).” left out

[3] = system: parental cell line (D3 ES cells); assay: Viability of the parental cell line in serum- and feeder-free conditions with BMP; settings: addition of BMP
From the text: as §2

[4] = system: Bcl-2, Bcl-xL, Mcl-1, Bax; assay: Western blot analysis of Bcl-2 family members after BMP stimulation; settings: parental ES cells, serum- and feeder-free, treated with BMP4 for 6 hours (FIG. 4B)
Procedure: FIG. 4A-4B. Western blot analysis for Smad proteins and Bcl-2 family members. (A) Cell lysates of parental cells cultured in conventional conditions with serum [p(serum)], a Bcl-2 clone in serum and feeder-free conditions untreated (Bcl-2), or treated with BMP4 for 90 minutes (Bcl-2+BMP4) were analyzed for the presence of phospho-Smad1/5/8 by western blotting (upper panel). The same membrane was stripped and reprobed with anti-actin antibody (lower panel). The band denoted by an asterisk is a product of non-specific staining. (B) Western blot analysis of Bcl-2 family members was performed for parental ES cells in conventional conditions with serum (serum), and for parental ES cells in serum- and feeder-free conditions without (Non) or treated with BMP4 for 6 hours (BMP4).
Western blots. Cells were lysed in 50 mM Tris-Cl (pH7.5)/150 mM NaCl/1% Triton-X/1% protease inhibitor cocktail set III (Calbiochem)/1 mM EDTA/1 mM Na3Vo4/1 mM NaF and proteins were separated by SDS-PAGE under denaturing conditions and transferred to Immobilon-P membrane (Miilipore). After blocking with 5% milk, the membrane was incubated with primary antibodies against phospho-Smad1/5/8 (Cell Signaling Technology), actin (Sigma), Bcl-2 (Dako), Bcl-xL (BD Bioscience), Mcl-1 (ABGENT), or Bax (BD Bioscience), washed, and then incubated with HRP-conjugated secondary antibodies. […]

## COc1cccc(-c2cc(=O)c3ccccc3o2)c1N [PD98059]
[1]; 12.5 μM PD98059, serum- and feeder-free (FIG. 5B)
  growth speed of parental cell line with inhibitor compared with Bcl-2 ES cells: somewhat faster
[1]; parental ES cell line, 12.5 μM PD98059, serum- and feeder-free, 14 days (FIG. 5A)
  differentiated cells which appeared during culture: dramatically reduced
[1]; parental ES cells, 12.5 μM PD98059, crisis upon continued passaging (FIG. 5B)
  continuous growth in serum- and feeder-free conditions in the presence of LIF without Bcl-2: supported the continuous growth
[2]
  colony formation at low cell density: could never support the colony formation

## C[S+]([O-])c1ccc(-c2nc(-c3ccncc3)c(-c3ccc(F)cc3)[nH]2)cc1 (stereo not shown) [SB 203580]
[1]; 1 μM SB203580, serum- and feeder-free conditions
  effect on self-renewal and differentiation of ES cells: did not show any effect

B1: BMP: bone morphogenic protein; BMP4 used for stimulation of ES cells (protein, UniProt P12644 293-408, looked up)
Bone morphogenetic protein 4: SPKHHSQRARKKNKNCRRHSLYVDFSDVGWNDWIVAPPGYQAFYCHGDCPFPLADHLNSTNHAIVQTLVNSVNSSIPKACCVPTELSAISMLYLDEYDKVVLKNYQEMVVEGCGCR
[3]
  viability of the parental cell line: did not improve viability
[4]
  expression of Bcl-2, Bcl-xL, Mcl-1 anti-apoptotic proteins: neither Bcl-2, Bcl-xL, or Mcl-1 anti-apoptotic proteins are up-regulated

Source: US7641897B2, “Feeder layer and serum independent embryonic stem cells” (The Board of Trustees of the Leland Stanford Junior …, priority 2004, dated 2010)
